According to US20210187014A1 (The Regents of the University of Colorado, a body corporate, priority 2018, published 2021):

Experiments:
ATP5A1 [1] = biological target: T1, ATP5A1 (Homo sapiens, UniProt P25705); experiment: 55FeCl3 +/- Ent in HEK293T cell lysates, ATP5A1 immunoprecipitation; format: binding
T1 construct: His

whole worm lysates = experiment: Affinity chromatography with immobilized Ent and mass spectrometry to identify Ent-binding proteins; parameters: species or system C. elegans; settings: two independent experiments
Method: CTL-2 is a homolog of catalases that are known to bind iron. ATP-1 is the a-subunit of the mitochondrial ATP synthase that is not known for a role in iron biology (Junge and Nelson, 2015).
Isolation of Enterobactin-binding proteins by biotin-IP and LC-MS. Total proteins were extracted from mixed stage worms and then pre-cleaned three times by adding 100 ul Dynabeads® M-280 Streptavidin. Equal volumes of these total protein extracts were then separated to two tubes. Biotin-Ent (5 ug) was added into one tube for IP and Biotin alone (5 ug) was added to another tube as the control, both were incubated overnight at 4° C. After incubating with Dynabeads® M-280 Streptavidin for 2 hours, the beads were washed at least 3 times by 1mL PBS. PBS was then removed from the beads and 200 uL 0.1 M ammonium bicarbonate (ABC)/0.001% deoxycholic acid (DCA) was added. The samples were reduced using 5 mM (final) TCEP at 60° C. for 30 min and alkylated using 15 mM iodoacetamide at room temperature for 20 min. 0.5 ug of trypsin was added to each sample and incubated overnight. The samples were then acidified using 7 uL of formic acid. DCA was removed from the samples by phasetransfer using ethyl acetate. The samples were desalted using a Pierce C18 spin column, and dried using a speed vac. […]

ATP5A1 [2] = biological target: T1, ATP5A1; experiment: Biotin-Ent binding to ATP5A1 (pulldown from HEK293T cells and in vitro binding assay); settings: excess, free Ent
Description: Sequence alignment indicates 78% identity between the ATP synthase a-subunits from C. elegans (ATP-1, Wormbase; SEQ ID NO. 7) and humans (ATP5A1, NCBI; SEQ ID NO. 8) (FIG. 11D). […] To test if this Ent-ATP-1 function is conserved in mammals, the present inventors repeated the prior described biotin-Ent pulldown assay (FIG. 3A) using total protein extracts from human HEK293T cells cultured +/− Biotin-Ent.
(§1) In vitro binding assay. (a) Ent-biotin pull-down of total proteins: Ent-biotin and streptavidin beads were used to pull down interacting proteins from worm total protein extracts (same method as that in initial screen for Ent-binding proteins). Western blots were performed to detect ATP-1 (Thermo Fisher 43-9800). […] The assay was then quenched with a standard 5×SDS-PAGE_loading buffer (reducing). Proteins were separated by SDS-PAGE and transferred to_nitrocellulose membranes. The membranes were blocked for 1 h with 5% BSA in Trisbuffered saline (TBS) with 0.1% Tween 20 (TBST) at room temperature, followed by incubation for 1 h with horseradish peroxidase streptavidin (Cell Signaling_Technology,3999S) in TBST. After four washes with changes every 15 min in TBST, the_biotinylated proteins were visualized by enhanced chemiluminescence (GE Healthcare,_RPN2232). […] After IP, the amount of 55Fe was determined by liquid scintillation.

succinate dehydrogenase = experiment: Succinate dehydrogenase enzymatic activity in worms +/- Ent; format: in vivo, C. elegans; settings: worms fed Ent-deficient food
Method: Enzymatic activity. Succinate Dehydrogenase (MAK197; Sigma) and aconitase (MAK051; Sigma) enzymatic activity were measured using the kits according to the manufacturer's protocol. […] After 48 hours culturing, worms were lysed in ice-cold conditions using the lysis buffer provided in the kit, supplemented with […]. Equal amounts of protein were used for the enzymatic activity assay.

[3] = test system: mitochondria from HEK293T cells; experiment: In vitro mitochondrial iron uptake assay, mitochondria from HEK293T cells; format: biochemical, human
Description: (§2) Moreover, using siRNA knockdown (FIG. 13A), the present inventors observed that this Ent-mediated increase depended on ATP5A1 (FIG. 6E, F) in a similar manner as that in the assays for C. elegans (FIG. 5A, D). The present inventors also measured the mitochondrial iron level in cells by using the fluorescent mitochondrial iron indicator, RPA, to which iron binding quenches its fluorescence. […] The relatively smaller changes seen for cultured cells, compared to the difference in worms fed heat-killed food (FIG. 2), may potentially be due to the higher base iron level under the cell culturing condition.
Mitochondrial iron uptake assays. For the in vitro mitochondrial iron uptake assay, the present inventors modified a published procedure for analysis of mammalian cells (Devireddy et al., 2010). […] The samples were incubated for 4 hours at room temperature, and the amount of 55Fe in lysed mitochondria was determined by liquid scintillation.

mice = experiment: Growth of mice fed control (iron-adequate) diet, Ent in drinking water; format: in vivo; settings: male mice, drinking water pH 5.5
Description: The present inventors treated 4.5-week male mice with the iron-adequate control diet (CD) described above, the matched control for the iron-deficient diet (IDD). As shown above in FIGS. 20 and 21, mice fed this diet had relative normal hemoglobin and iron levels. […] This experiment was incomplete because the hemoglobin and iron levels were not measured, which will be repeated.

ATP-1 = biological target: T2, ATP-1 (Caenorhabditis elegans, UniProt Q9XXK1); experiment: Biotin-Ent binding to ATP-1 (in vivo pulldown and in vitro binding assay); parameters: species or system C. elegans; settings: excess non-biotin labeled Ent
T2 construct: His; made in house; host or cells: E. coli (given only for the three ATP-1 segments)
Method: First, in an in vivo assay, worms were fed bacteria +/− Biotin-Ent and total protein extracts were isolated, followed by streptavidin-bead purification and SDS-PAGE. […] Just as the iron-free Biotin-Ent, iron-bound Biotin-Ent also bound the ATP-1 protein (FIG. 10B, C).
In vivo binding assay: Worms were allowed to grow with Ent-biotin (5 ug/ml) dietary supplementation, followed by streptavidin-bead IP. Western blot was performed to detect ATP-1, using an antibody against the mammalian ATP synthase a-subunit (Thermo Fisher 43-9800).
as §1, with “TBST.” for “TBST. After four washes with changes every 15 min in TBST, the_biotinylated proteins were visualized by enhanced chemiluminescence (GE Healthcare,_RPN2232).”

HEK293T cells [4] = experiment: In vivo mitochondrial iron uptake assay in HEK293T cells; format: cell-based, human
C. elegans = experiment: Siderophore toxicity test: worm growth and mitochondrial morphology (mtGFP); format: in vivo; settings: in vivo
Description: FIG. 8. Bacterial enterobactin promotes C. elegans development. […] (8E) The entA- and entF-mutant E. coli strains colonized the host gut as efficiently as the parental wild-type strain. (FIG. 8F) Cartoon diagram of feeding condition, microscope images and bar graph showing that neither pyoverdine nor ferrichrome caused obvious growth defects in worms fed heat-killed food plus wild-type, live E. coli. (FIG. 8G) Fluorescence microscopy of worms containing mtGFP under the same feeding condition as in (FIG. 8F). […] “n” =number of worms scored. Data are represented as mean±SEM. ***P<0.0001.

HEK293T cells [5] = experiment: Mitochondrial iron level by fluorescent indicator RPA; format: cell-based, human
Description: as §2
Mitochondrial iron measurement in mammalian cells. The mitochondrial iron pools were determined as described (Mena et al., 2015). Briefly, cells were loaded for 20 min at 37 ° C. with 2 uM of the mitochondrial iron chelator rhodamine B-[(1,10-phenanthrolin-5-yl) aminocarbonyl]benzyl ester (RPA). After washing, the cells were imaged by fluorescence microscopy.

T1 sequence (P25705 44-553): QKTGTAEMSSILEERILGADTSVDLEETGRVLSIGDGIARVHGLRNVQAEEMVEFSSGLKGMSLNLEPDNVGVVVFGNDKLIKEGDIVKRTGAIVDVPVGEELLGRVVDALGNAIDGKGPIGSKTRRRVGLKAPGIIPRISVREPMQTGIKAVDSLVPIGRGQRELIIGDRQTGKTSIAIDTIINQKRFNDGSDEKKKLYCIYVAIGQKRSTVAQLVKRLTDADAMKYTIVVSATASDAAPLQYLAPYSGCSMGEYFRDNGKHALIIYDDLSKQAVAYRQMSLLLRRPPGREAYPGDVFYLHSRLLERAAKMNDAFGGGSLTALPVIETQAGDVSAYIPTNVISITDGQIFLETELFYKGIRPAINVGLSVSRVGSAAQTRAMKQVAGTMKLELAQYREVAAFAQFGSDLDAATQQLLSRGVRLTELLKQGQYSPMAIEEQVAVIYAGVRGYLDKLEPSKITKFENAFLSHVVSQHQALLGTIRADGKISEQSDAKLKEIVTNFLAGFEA
T2 sequence (Q9XXK1 whole entry): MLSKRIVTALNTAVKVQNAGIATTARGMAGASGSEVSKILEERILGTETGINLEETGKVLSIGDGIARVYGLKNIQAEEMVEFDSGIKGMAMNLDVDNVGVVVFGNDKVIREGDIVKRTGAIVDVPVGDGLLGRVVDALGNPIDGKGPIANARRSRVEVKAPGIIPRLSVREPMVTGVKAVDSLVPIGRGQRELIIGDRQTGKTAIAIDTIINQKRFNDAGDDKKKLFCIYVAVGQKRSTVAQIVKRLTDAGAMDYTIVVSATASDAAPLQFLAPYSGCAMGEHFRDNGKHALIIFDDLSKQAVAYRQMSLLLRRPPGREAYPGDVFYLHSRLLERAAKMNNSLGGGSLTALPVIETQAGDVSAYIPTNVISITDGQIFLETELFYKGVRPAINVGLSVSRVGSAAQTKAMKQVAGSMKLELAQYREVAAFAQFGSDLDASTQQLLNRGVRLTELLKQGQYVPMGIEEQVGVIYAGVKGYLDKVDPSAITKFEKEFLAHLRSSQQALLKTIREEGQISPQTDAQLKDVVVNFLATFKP

`O=C(N[C@H]1COC(=O)[C@@H](NC(=O)c2cccc(O)c2O)COC(=O)[C@@H](NC(=O)c2cccc(O)c2O)COC1=O)c1cccc(O)c1O` [Ent, enterobactin] was tested. Which “level of 55Fe in ATP5A1-IP samples” value (ATP5A1 [1]) did it give?
The value was “increased”.

What about the “candidate Ent-binding proteins captured” value (whole worm lysates) of the same compound?
The value was “CTL-2 and ATP-1”.

What about the “competition of biotin-Ent binding to ATP5A1” value (ATP5A1 [2]) of the same compound?
Its value is “effectively competed away”.

And the “activity of succinate dehydrogenase” value (succinate dehydrogenase)?
Its value is “significantly increased”.

What about the “iron level in mitochondria” value [3] of the same compound?
Its value is “prominently increased”.

And the “growth rate (weight gain)” value (mice)?
The value was “increased growth rate”.

And the “competition of Biotin-Ent binding to ATP-1-His” value (ATP-1)?
Its value is “outcompeted”.

And the “iron level in mitochondria” value (HEK293T cells [4])?
Its value is “prominently increased”.

What about the “mitochondrial morphology (mtGFP)” value (C. elegans) of the same compound?
The value was “did not disrupt mitochondrial morphology”.

And the “mitochondrial iron level (RPA)” value (HEK293T cells [5])?
The value was “increased the mitochondrial iron level”.

And the “iron-boosting effect of Ent (RPA)” value (HEK293T cells [5]; cells treated with ATP5A1 siRNA)?
The value was “not seen”.
